The results in this text go back to patent US20240368150A1 (Hoffmann-La Roche Inc., priority 2021, published 2024).

The test system of assay [1] is primary human T-cells. Kind of assay: Proliferation assay after 5 days (CellTiter-Glo, CD3 stimulation; PBS counter screen). The format is cell-based. The following applies: Homo sapiens, T-cell, 120 h, CD3 stimulation; for Emax: 5 days, normalized to reference compound A1 as stimulator control = 100%, DMSO neutral control, read-out: Emax proliferation (% activation); for EC50: primary human T-cells, CellTiter-Glo after 5 days, EC50 of fitted sigmoidal curve, read-out: Tcell Proliferation CD3 EC50. The method, boiled down:
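Read-out: CellTiter-Glo 2.0 luminescence (ATP ∝ cell number) at day 5 after compound addition. Compounds activating unstimulated cells or reducing viability flagged.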

Assay [2] relates to primary human T-cells.
A further assay deals with MV-3 cells. Kind of assay: T-cell - TCB - MV3 killing assay (MCSP-TCB, RFP object count by Incucyte). It counts as cell-based, human. The following applies: 5 d; for Emax: normalized: MCSP-TCB only = neutral control, 20 μM reference compound A1 = 100%, read-out: MSCP TCB killing MV-3 cells 5 d Emax; for EC50: primary human T-cells + MCSP-TCB, MV-3 RFP cells, read-out: MSCP TCB killing MV-3 cells 5 d EC50.

Where two headings read alike, the source gives them in different places. Bounds are passed on as bounds.

As to `N[C@H]1CS(=O)(=O)c2cc(F)c(-c3nnc(NC4CCC(F)(F)CC4)o3)cc2N(Cc2ccc(Cl)cc2)C1=O` [Example 458, (3R)-3-amino-5-[(4-chlorophenyl)methyl]-7-[5-[(4,4-difluorocyclohexyl)amino]-1,3,4-oxadiazol-2-yl]-8-fluoro-1,1-dioxo-2,3-dihydro-1λ^6,5-benzothiazepin-4-one], the Emax worked out at 116% with primary human T-cells [1] and 95% in the assay with MV-3 cells (Homo sapiens, MV-3, 120 h). Moreover, the values for the EC50 in the assay on primary human T-cells [1], with primary human T-cells [2] and in the assay with MV-3 cells were 0.491 µM, 0.543 µM and 0.59 µM, respectively.

With `CN1CCC(n2nnc(-c3cc4c(cc3F)S(=O)(=O)C[C@H](N)C(=O)N4Cc3ccc(Cl)cc3)n2)C1` (stereo partly drawn) [Example 12, (3R)-3-amino-5-[(4-chlorophenyl)methyl]-8-fluoro-7-[2-(1-methylpyrrolidin-3-yl)tetrazol-5-yl]-1,1-dioxo-2,3-dihydro-1λ^6,5-benzothiazepin-4-one], the Emax in the assay on primary human T-cells [1] was 84%; in the assay with MV-3 cells (Homo sapiens, MV-3, 120 h) it was 96%. Further, the figures for the EC50 with primary human T-cells [1], with primary human T-cells [2] and in the assay on MV-3 cells were 1.02 µM, 0.967 µM and 0.91 µM, respectively.

On to `CC(C)Oc1ccc(CN2C(=O)[C@@H](N)CS(=O)(=O)c3cc(F)c(-c4nnc(C(C)(C)C)o4)cc32)cc1` [Example 254, (3R)-3-amino-7-(5-tert-butyl-1,3,4-oxadiazol-2-yl)-8-fluoro-5-[(4-isopropoxyphenyl)methyl]-1,1-dioxo-2,3-dihydro-1λ^6,5-benzothiazepin-4-one], for which the Emax with primary human T-cells [1] came out at 95%; with MV-3 cells (Homo sapiens, MV-3, 120 h), 104%. The EC50 in the assay on primary human T-cells [1] is less than 0.0151 µM; with primary human T-cells [2] it was 0.0595 µM; in the assay on MV-3 cells, 0.01 µM.

As to `N[C@H]1CS(=O)(=O)c2cc(F)c(-c3nc(CC(F)(F)F)no3)cc2N(Cc2ccc(Cl)cc2)C1=O` [Example 49, (3R)-3-amino-5-[(4-chlorophenyl)methyl]-8-fluoro-1,1-dioxo-7-[3-(2,2,2-trifluoroethyl)-1,2,4-oxadiazol-5-yl]-2,3-dihydro-1λ^6,5-benzothiazepin-4-one], the Emax in the assay with primary human T-cells [1] was determined as 112%; in the assay on MV-3 cells (Homo sapiens, MV-3, 120 h) it was 100%. For the same compound, the EC50 turned out to be 0.585 µM in the assay with primary human T-cells [1], 2.18 µM in the assay on primary human T-cells [2] and 0.17 µM with MV-3 cells.

Take `COC(=O)N1CCC(C)(c2nnc(-c3cc4c(cc3F)S(=O)(=O)C[C@H](N)C(=O)N4Cc3ccc(Cl)cc3)o2)CC1` [Example 171, methyl 4-methyl-4-[5-[(3R)-3-amino-5-[(4-chlorophenyl)methyl]-8-fluoro-1,1,4-trioxo-2,3-dihydro-1λ^6,5-benzothiazepin-7-yl]-1,3,4-oxadiazol-2-yl]piperidine-1-carboxylate]: the Emax in the assay on primary human T-cells [1] worked out at 93%; with MV-3 cells (Homo sapiens, MV-3, 120 h), 100%. Moreover, the EC50 in the assay with primary human T-cells [1] amounted to 0.0555 µM; in the assay on primary human T-cells [2], 0.0757 µM; in the assay with MV-3 cells, 0.04 µM.

Turning to `Cc1cc2c(cc1-c1nnc(C(C)(C)C)o1)N(Cc1ccc(Cl)cc1)C(=O)[C@@H](N)CS2(=O)=O` [Example 272, (3R)-3-amino-7-(5-tert-butyl-1,3,4-oxadiazol-2-yl)-5-[(4-chlorophenyl)methyl]-8-methyl-1,1-dioxo-2,3-dihydro-1λ^6,5-benzothiazepin-4-one], the Emax with primary human T-cells [1] turned out to be 102%; in the assay with MV-3 cells (Homo sapiens, MV-3, 120 h), 100%. The results for the EC50 in the assay on primary human T-cells [1], with primary human T-cells [2] and in the assay with MV-3 cells were 0.79 µM, 1.7 µM and 1.09 µM, respectively.

For the compound `CC(C)(C)c1nnc(-c2cc3c(cc2F)S(=O)(=O)C[C@H](N)C(=O)N3Cc2ccc(Cl)cc2)o1` [Example 63, (3R)-3-amino-7-(5-tert-butyl-1,3,4-oxadiazol-2-yl)-5-[(4-chlorophenyl)methyl]-8-fluoro-1,1-dioxo-2,3-dihydro-1λ^6,5-benzothiazepin-4-one], the Emax with primary human T-cells [1] is 141%; with MV-3 cells (Homo sapiens, MV-3, 120 h), 93%. Moreover, the EC50 in the assay on primary human T-cells [1] was 0.0488 µM; in the assay with primary human T-cells [2] it was 0.0671 µM; in the assay on MV-3 cells (Homo sapiens, MV-3, 120 h), 0.02 µM.
